Reference: US20250011299A1, “PYRIDAZINYL AMINO DERIVATIVES AS ALK5 INHIBITORS” (CHIESI FARMACEUTICI S.P.A., priority 2021, published 2025)
Values joined by “and” are separate entries in the source; they are usually repeats but may differ in a detail not shown here. Equal entries are not always repeated.

Target: T1, human ALK5 (Homo sapiens, UniProt P36897)
T1 construct: human ALK5 (recombinant TGF β1 N-term GST-tagged, 80-end); GST (N); purchased
T1 sequence (P36897 80-503 limits assumed): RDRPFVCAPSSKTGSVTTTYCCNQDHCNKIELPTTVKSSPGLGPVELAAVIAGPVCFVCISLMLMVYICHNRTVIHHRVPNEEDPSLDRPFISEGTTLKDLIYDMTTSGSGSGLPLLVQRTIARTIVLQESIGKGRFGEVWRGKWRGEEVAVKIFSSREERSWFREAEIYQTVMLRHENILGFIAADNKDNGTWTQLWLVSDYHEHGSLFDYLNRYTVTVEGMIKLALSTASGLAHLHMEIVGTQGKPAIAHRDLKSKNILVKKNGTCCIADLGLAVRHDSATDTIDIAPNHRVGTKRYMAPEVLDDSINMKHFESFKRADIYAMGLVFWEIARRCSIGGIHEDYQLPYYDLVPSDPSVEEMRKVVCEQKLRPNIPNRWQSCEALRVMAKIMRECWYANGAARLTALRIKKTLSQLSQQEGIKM
Assay: ADP-GLO Kinases assay of ALK5 enzymatic activity
Format: biochemical
Settings: purified recombinant human ALK5, TGFβ1 peptide substrate, pIC50 converted to pKi by Cheng-Prusoff, high ATP protocol (15 μM) for very potent compounds, 25° C.
Outline: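 Purified ALK5 preincubated 15 min with compound, then reacted with substrate and ATP; ADP formed read by ADP-Glo luminescence after 120 min or 60 min reaction, all steps at 25° C. 11-point concentration-response; pIC50 converted to pKi via Cheng-Prusoff.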

SMILES | Ki
CN1CCN(CCC(=O)Nc2cc(Nc3cc(-c4cc(Cl)ccc4F)nnc3N(C)C)ccn2)CC1 [Example 30, N-(4-{[6-(5-chloro-2-fluorophenyl)-3-(dimethylamino)pyridazin-4-yl]amino}pyridin-2-yl)-3-(4-methylpiperazin-1-yl)propanamide] | ≤ 0.1 nM
COCCOc1nnc(-c2cc(Cl)ccc2F)cc1Nc1ccnc(NC(=O)CCN2CCN(C)CC2)c1 [Example 31, N-(4-{[6-(5-chloro-2-fluorophenyl)-3-(2-methoxyethoxy)pyridazin-4-yl]amino}pyridin-2-yl)-3-(4-methylpiperazin-1-yl)propanamide] | ≤ 0.1 nM
COCCOc1nnc(-c2cc(Cl)ccc2F)cc1Nc1ccnc2cc(OCCN3CCN(C)CC3)ccc12 [Example 32, N-[6-(5-chloro-2-fluorophenyl)-3-(2-methoxyethoxy)pyridazin-4-yl]-7-[2-(4-methylpiperazin-1-yl)ethoxy]quinolin-4-amine] | ≤ 0.1 nM
COCCOc1nnc(-c2cc(Cl)ccc2F)cc1Nc1ccnc(NC(=O)CCN2CCN(CC(F)(F)F)CC2)c1 [Example 33, N-(4-{[6-(5-chloro-2-fluorophenyl)-3-(2-methoxyethoxy)pyridazin-4-yl]amino}pyridin-2-yl)-3-[4-(2,2,2-trifluoroethyl)piperazin-1-yl]propanamide] | ≤ 0.1 nM
COCCOc1nnc(-c2cc(Cl)ccc2F)cc1Nc1ccnc(NC(=O)CCN2CCOCC2)c1 [Example 34, N-(4-{[6-(5-chloro-2-fluorophenyl)-3-(2-methoxyethoxy)pyridazin-4-yl]amino}pyridin-2-yl)-3-(morpholin-4-yl)propanamide] | ≤ 0.1 nM
COc1ccc2c(Nc3cc(-c4cc(Cl)ccc4F)nnc3OCCN3CCN(C)CC3)ccnc2c1 [Example 35, N-[6-(5-chloro-2-fluorophenyl)-3-[2-(4-methylpiperazin-1-yl)ethoxy]pyridazin-4-yl]-7-methoxyquinolin-4-amine] | 0.126 to 0.316 nM
CN1CCN(CCOc2nnc(-c3cc(Cl)ccc3F)cc2Nc2ccnc(NC(=O)C3CC3)c2)CC1 [Example 36, N-(4-{[6-(5-chloro-2-fluorophenyl)-3-[2-(4-methylpiperazin-1-yl)ethoxy]pyridazin-4-yl]amino}pyridin-2-yl)cyclopropanecarboxamide] | ≤ 0.1 nM
CN1CCN(CCOc2nnc(-c3cc(Cl)ccc3F)cc2Nc2ccnc3[nH]ccc23)CC1 [Example 37, 6-(5-chloro-2-fluorophenyl)-3-[2-(4-methylpiperazin-1-yl)ethoxy]-N-{1H-pyrrolo[2,3-b]pyridin-4-yl}pyridazin-4-amine] | 0.398 to 3.16 nM
CN(C)CCOc1nnc(-c2cc(Cl)ccc2F)cc1Nc1ccnc(NC(=O)C2CC2)c1 [Example 38, N-(4-{[6-(5-chloro-2-fluorophenyl)-3-[2-(dimethylamino)ethoxy]pyridazin-4-yl]amino}pyridin-2-yl)cyclopropanecarboxamide] | ≤ 0.1 nM
COc1ccc2c(Nc3cc(-c4cc(Cl)ccc4F)nnc3OCCN(C)C)ccnc2c1 [Example 39, N-[6-(5-chloro-2-fluorophenyl)-3-[2-(dimethylamino)ethoxy]pyridazin-4-yl]-7-methoxyquinolin-4-amine] | 0.398 to 3.16 nM
CN(C)CCOc1nnc(-c2cc(Cl)ccc2F)cc1Nc1ccnc(NC(=O)CCN2CCOCC2)c1 [Example 40, N-(4-{[6-(5-chloro-2-fluorophenyl)-3-[2-(dimethylamino)ethoxy]pyridazin-4-yl]amino}pyridin-2-yl)-3-(morpholin-4-yl)propanamide] | 0.126 to 0.316 nM and 0.398 to 3.16 nM
CN(C)CCOc1nnc(-c2cc(Cl)ccc2F)cc1Nc1ccnc2[nH]ccc12 [Example 41, 6-(5-chloro-2-fluorophenyl)-3-[2-(dimethylamino)ethoxy]-N-{1H-pyrrolo[2,3-b]pyridin-4-yl}pyridazin-4-amine] | 0.398 to 3.16 nM
CN(C)CCOc1nnc(-c2cc(Cl)ccc2F)cc1Nc1ccnc2[nH]ncc12 [Example 42, 6-(5-chloro-2-fluorophenyl)-3-[2-(dimethylamino)ethoxy]-N-{1H-pyrazolo[3,4-b]pyridin-4-yl}pyridazin-4-amine] | 0.398 to 3.16 nM
Nc1cc(Nc2cc(-c3cc(Cl)ccc3F)nnc2OCCO)ccn1 [Example 43, 2-({4-[(2-aminopyridin-4-yl)amino]-6-(5-chloro-2-fluorophenyl)pyridazin-3-yl}oxy)ethan-1-ol] | 0.398 to 3.16 nM
CN1CC(COc2nnc(-c3cc(Cl)ccc3F)cc2Nc2ccnc(NC(=O)C3CC3)c2)C1 [Example 44, N-(4-{[6-(5-chloro-2-fluorophenyl)-3-[(1-methylazetidin-3-yl)methoxy]pyridazin-4-yl]amino}pyridin-2-yl)cyclopropanecarboxamide] | 0.126 to 0.316 nM
CS(=O)(=O)NCCOc1nnc(-c2cc(Cl)ccc2F)cc1Nc1ccnc(N)c1 [Example 45, N-[2-({4-[(2-aminopyridin-4-yl)amino]-6-(5-chloro-2-fluorophenyl)pyridazin-3-yl}oxy)ethyl]methanesulfonamide] | ≤ 0.1 nM
COc1nnc(-c2cc(Cl)ccc2F)cc1Nc1ccnc2cc(OCCN3CCN(C)CC3)ccc12 [Example 46, N-[6-(5-chloro-2-fluorophenyl)-3-methoxypyridazin-4-yl]-7-[2-(4-methylpiperazin-1-yl)ethoxy]quinolin-4-amine] | ≤ 0.1 nM
COc1nnc(-c2cc(Cl)ccc2F)cc1Nc1ccnc(NC(=O)CCN2CCN(C)CC2)c1 [Example 47, N-(4-{[6-(5-chloro-2-fluorophenyl)-3-methoxypyridazin-4-yl]amino}pyridin-2-yl)-3-(4-methylpiperazin-1-yl)propanamide] | ≤ 0.1 nM
COc1nnc(-c2cc(Cl)ccc2F)cc1Nc1ccnc(N)c1 [Example 48, N4-[6-(5-chloro-2-fluorophenyl)-3-methoxypyridazin-4-yl]pyridine-2,4-diamine] | 0.126 to 0.316 nM
Nc1cc(Nc2cc(-c3cc(Cl)ccc3F)nnc2OCC(F)(F)F)ccn1 [Example 49, N4-[6-(5-chloro-2-fluorophenyl)-3-(2,2,2-trifluoroethoxy)pyridazin-4-yl]pyridine-2,4-diamine] | 0.398 to 3.16 nM
CN1CCN(CCC(=O)Nc2cc(Nc3cc(-c4cc(Cl)ccc4F)nnc3OCC(F)(F)F)ccn2)CC1 [Example 50, N-(4-{[6-(5-chloro-2-fluorophenyl)-3-(2,2,2-trifluoroethoxy)pyridazin-4-yl]amino}pyridin-2-yl)-3-(4-methylpiperazin-1-yl)propanamide] | ≤ 0.1 nM
CN1CCN(CCOc2ccc3c(Nc4cc(-c5cc(Cl)ccc5F)nnc4OCC(F)(F)F)ccnc3c2)CC1 [Example 51, N-[6-(5-chloro-2-fluorophenyl)-3-(2,2,2-trifluoroethoxy)pyridazin-4-yl]-7-[2-(4-methylpiperazin-1-yl)ethoxy]quinolin-4-amine] | ≤ 0.1 nM
CN1CCN(CCC(=O)Nc2cc(Nc3cc(-c4cc(Cl)ccc4F)nnc3OCC(F)F)ccn2)CC1 [Example 52, N-(4-{[6-(5-chloro-2-fluorophenyl)-3-(2,2-difluoroethoxy)pyridazin-4-yl]amino}pyridin-2-yl)-3-(4-methylpiperazin-1-yl)propanamide] | 0.126 to 0.316 nM
Nc1cc(Nc2cc(-c3cc(Cl)ccc3F)nnc2OCC(F)F)ccn1 [Example 53, N4-[6-(5-chloro-2-fluorophenyl)-3-(2,2-difluoroethoxy)pyridazin-4-yl]pyridine-2,4-diamine] | 0.398 to 3.16 nM
